Experimental data as given in patent US11969428B2, “Methods and pharmaceutical compositions for treating lymphoid malignancy” (priority 2011, dated 2024).

Columns and labels:
Experiment in all cases: Ambit KinomeScan screening
Assay type in all cases: binding
Conditions in all cases: CAL-130 10 μM
[1] = target: T1, RIPK2 (Homo sapiens, UniProt O43353)
T1 construct: unspecified tag (tagged kinase); purchased Ambit (KinomeScan screening)
How it was run: (§1)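 Single-concentration profiling (10 μM CAL-130) measured displacement of tagged kinases from an immobilized bait ligand. Percent-of-control binding was reported; smaller values denote stronger interaction.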

[2] = target: T2, DAPK1 (Homo sapiens, UniProt P53355)
T2 construct: purchased Ambit (KinomeScan screening service)
T2 sequence (P53355 whole entry): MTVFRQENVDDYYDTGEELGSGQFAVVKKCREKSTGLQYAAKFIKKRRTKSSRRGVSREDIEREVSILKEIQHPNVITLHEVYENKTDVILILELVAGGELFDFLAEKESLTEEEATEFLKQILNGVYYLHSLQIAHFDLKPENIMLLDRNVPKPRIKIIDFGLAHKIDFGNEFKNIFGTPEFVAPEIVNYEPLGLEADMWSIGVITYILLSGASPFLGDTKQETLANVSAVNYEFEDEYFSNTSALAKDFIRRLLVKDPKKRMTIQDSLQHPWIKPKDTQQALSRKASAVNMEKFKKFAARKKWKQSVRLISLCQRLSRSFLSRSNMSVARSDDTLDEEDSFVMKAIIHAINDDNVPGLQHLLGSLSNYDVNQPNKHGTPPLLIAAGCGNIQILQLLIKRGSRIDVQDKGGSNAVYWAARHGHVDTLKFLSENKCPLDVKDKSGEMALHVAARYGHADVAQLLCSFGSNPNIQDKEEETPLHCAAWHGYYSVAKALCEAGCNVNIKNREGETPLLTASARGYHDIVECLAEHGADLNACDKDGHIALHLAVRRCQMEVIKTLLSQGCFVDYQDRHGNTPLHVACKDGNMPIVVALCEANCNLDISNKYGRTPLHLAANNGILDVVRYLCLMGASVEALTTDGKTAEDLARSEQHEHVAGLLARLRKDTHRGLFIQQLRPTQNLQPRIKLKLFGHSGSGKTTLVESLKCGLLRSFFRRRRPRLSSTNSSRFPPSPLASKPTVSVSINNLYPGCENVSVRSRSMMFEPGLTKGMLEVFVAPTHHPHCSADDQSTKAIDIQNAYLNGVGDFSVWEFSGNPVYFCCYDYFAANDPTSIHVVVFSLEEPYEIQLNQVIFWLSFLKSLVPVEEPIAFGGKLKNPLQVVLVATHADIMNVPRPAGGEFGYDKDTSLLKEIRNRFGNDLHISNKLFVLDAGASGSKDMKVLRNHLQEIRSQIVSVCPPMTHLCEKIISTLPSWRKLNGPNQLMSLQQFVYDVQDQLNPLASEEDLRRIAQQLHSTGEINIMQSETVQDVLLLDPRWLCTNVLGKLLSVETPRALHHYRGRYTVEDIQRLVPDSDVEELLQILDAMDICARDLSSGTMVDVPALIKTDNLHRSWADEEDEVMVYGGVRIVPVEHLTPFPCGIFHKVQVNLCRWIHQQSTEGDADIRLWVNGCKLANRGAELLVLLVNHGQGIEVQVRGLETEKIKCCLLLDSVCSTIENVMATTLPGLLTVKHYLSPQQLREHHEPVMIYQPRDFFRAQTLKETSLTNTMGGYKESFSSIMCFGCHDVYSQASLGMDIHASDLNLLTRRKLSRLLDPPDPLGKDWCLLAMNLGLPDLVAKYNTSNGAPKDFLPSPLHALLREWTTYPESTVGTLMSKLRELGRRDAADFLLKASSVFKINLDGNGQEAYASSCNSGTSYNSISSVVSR
How it was run: as §1

[3] = target: T3, ICK (Homo sapiens, UniProt Q9UPZ9)
T3 construct: Ambit (KinomeScan screening)
T3 sequence (Q9UPZ9 whole entry): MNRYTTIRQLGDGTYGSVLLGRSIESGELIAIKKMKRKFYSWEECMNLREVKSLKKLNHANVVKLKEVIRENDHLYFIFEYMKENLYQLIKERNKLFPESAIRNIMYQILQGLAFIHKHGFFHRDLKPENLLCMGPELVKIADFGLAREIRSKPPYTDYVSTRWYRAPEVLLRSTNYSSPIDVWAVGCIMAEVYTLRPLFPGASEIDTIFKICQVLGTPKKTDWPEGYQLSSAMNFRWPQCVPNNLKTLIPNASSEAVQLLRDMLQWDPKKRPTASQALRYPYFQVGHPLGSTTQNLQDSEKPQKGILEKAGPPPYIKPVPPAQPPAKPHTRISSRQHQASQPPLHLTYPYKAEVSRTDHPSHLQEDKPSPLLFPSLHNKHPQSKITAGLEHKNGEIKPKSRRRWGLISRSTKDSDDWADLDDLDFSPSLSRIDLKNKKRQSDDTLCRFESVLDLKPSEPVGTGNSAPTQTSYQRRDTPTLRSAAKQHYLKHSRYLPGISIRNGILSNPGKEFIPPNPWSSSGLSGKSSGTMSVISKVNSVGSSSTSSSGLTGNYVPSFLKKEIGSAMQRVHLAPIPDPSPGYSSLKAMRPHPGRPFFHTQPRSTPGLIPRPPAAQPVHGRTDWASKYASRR
How it was run: as §1

[4] = target: T4, MEK2 (Homo sapiens, UniProt P36507)
T4 construct: purchased Ambit (KinomeScan screening)
How it was run: as §1

[5] = target: T5, SYK (Homo sapiens, UniProt P43405)
T5 construct: tag (kind not specified); purchased Ambit (KinomeScan screening service)
How it was run: as §1

[6] = target: T6, IRAK3 (Homo sapiens, UniProt Q9Y616)
T6 construct: purchased Ambit (KinomeScan screening)
How it was run: as §1

[7] = target: T7, AKT1 (Homo sapiens, UniProt P31749)
T7 construct: purchased Ambit (KinomeScan screening)
T7 sequence (P31749 whole entry): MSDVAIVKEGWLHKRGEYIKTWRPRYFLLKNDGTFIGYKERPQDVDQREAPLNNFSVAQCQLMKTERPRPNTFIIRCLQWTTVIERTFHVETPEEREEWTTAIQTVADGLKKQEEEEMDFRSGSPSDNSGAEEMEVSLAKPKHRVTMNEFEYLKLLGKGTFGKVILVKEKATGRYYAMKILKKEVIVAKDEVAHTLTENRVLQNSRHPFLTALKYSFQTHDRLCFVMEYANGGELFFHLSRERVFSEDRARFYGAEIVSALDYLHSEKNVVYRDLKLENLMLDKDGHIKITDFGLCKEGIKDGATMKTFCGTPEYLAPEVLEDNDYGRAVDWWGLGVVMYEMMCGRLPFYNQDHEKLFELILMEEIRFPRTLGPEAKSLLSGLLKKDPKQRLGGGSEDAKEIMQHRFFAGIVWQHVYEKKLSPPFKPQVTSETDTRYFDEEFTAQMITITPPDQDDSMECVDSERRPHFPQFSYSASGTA
How it was run: as §1

[8] = target: T8, EGFR(L858R, T790M) (Homo sapiens, UniProt P00533, L858R/T790M)
T8 construct: unspecified tag; purchased Ambit (KinomeScan screening service)
How it was run: as §1

[9] = target: T9, AKT3 (Homo sapiens, UniProt Q9Y243)
T9 construct: purchased Ambit (KinomeScan screening)
T9 sequence (Q9Y243 whole entry): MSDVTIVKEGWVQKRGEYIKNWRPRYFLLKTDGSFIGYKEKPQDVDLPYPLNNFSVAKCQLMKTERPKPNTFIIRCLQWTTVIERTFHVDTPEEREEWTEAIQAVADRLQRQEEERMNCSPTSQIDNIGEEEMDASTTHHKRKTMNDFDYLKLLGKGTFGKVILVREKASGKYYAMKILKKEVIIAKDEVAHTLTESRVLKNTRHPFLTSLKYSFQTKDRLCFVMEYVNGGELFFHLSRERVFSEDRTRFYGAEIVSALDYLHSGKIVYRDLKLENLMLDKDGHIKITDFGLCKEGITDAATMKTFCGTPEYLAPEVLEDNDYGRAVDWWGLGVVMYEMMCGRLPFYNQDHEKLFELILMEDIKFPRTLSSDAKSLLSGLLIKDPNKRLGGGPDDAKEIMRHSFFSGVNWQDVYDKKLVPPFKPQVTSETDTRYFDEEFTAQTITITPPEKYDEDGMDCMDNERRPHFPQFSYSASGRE
How it was run: as §1

[10] = target: T10, MARK3 (Homo sapiens, UniProt P27448)
T10 construct: purchased Ambit (KinomeScan screening)
How it was run: as §1

[11] = target: T11, MAP3K4 (Homo sapiens, UniProt Q9Y6R4)
T11 construct: Ambit (KinomeScan screening)
How it was run: as §1

[12] = target: T12, SRPK1 (Homo sapiens, UniProt Q96SB4)
T12 construct: tag, kind not specified; purchased Ambit (KinomeScan screening service)
How it was run: as §1

[13] = target: T13, CHEK1 (Homo sapiens, UniProt O14757)
T13 construct: purchased Ambit (KinomeScan screening service)
How it was run: as §1

[14] = target: T14, SIK2 (Homo sapiens, UniProt Q9H0K1)
T14 construct: tag, kind not specified; purchased Ambit (KinomeScan screening service)
How it was run: as §1

[15] = target: T15, ARK5 (Homo sapiens, UniProt O60285)
T15 construct: purchased Ambit (KinomeScan screening service)
How it was run: as §1

[16] = target: T16, PRKD3 (Homo sapiens, UniProt O94806)
T16 construct: tag (kind not specified); purchased Ambit (KinomeScan screening service)
How it was run: as §1

[17] = target: T17, OSR1 (Homo sapiens, UniProt O95747)
T17 construct: purchased Ambit (KinomeScan screening service)
How it was run: as §1

[18] = target: T18, STK39 (Homo sapiens, UniProt Q9UEW8)
T18 construct: tag (kind not specified); purchased Ambit (KinomeScan screening service)
How it was run: as §1

[19] = target: T19, IKK-β (Homo sapiens, UniProt O14920)
T19 construct: Ambit (KinomeScan screening)
How it was run: as §1

[20] = target: T20, ACVR1 (Homo sapiens, UniProt Q04771)
T20 construct: unspecified tag ("tagged kinases"); purchased Ambit (KinomeScan screening)
How it was run: as §1

[21] = target: T21, PRKCH (Homo sapiens, UniProt P24723)
T21 construct: purchased Ambit (KinomeScan screening service)
How it was run: as §1

[22] = target: T22, CAMK2G (Homo sapiens, UniProt Q13555)
T22 construct: purchased Ambit (KinomeScan screening)
How it was run: as §1

[23] = target: T23, EPHA4 (Homo sapiens, UniProt P54764)
T23 construct: purchased Ambit (KinomeScan screening service)
How it was run: as §1

[24] = target: T24, NEK5 (Homo sapiens, UniProt Q6P3R8)
T24 construct: unspecified tag; purchased Ambit (KinomeScan screening panel)
T24 sequence (Q6P3R8 whole entry): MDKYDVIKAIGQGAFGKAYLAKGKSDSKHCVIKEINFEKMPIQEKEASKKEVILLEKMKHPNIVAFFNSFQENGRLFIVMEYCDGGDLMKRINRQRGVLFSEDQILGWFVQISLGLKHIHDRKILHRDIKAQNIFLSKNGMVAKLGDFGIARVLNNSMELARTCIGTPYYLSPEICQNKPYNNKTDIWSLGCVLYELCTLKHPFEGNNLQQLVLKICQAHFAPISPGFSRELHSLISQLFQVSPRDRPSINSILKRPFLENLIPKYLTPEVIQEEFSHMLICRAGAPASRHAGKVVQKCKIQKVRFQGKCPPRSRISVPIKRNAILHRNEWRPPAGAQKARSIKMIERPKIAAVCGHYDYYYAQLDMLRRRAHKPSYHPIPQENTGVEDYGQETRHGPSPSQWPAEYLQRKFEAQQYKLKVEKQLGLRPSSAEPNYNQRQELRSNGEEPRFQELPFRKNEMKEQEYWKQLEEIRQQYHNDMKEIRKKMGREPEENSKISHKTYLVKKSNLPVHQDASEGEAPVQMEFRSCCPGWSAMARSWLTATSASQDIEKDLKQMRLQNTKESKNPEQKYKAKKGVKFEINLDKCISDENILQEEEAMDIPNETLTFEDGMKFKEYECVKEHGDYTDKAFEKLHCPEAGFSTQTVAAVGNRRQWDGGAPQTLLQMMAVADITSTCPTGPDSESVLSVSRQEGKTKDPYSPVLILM
How it was run: as §1

[25] = target: T25, DCAMKL1 (Homo sapiens, UniProt O15075)
T25 construct: unspecified tag ("tagged kinases"); purchased Ambit (KinomeScan screening service)
How it was run: as §1

[26] = target: T26, HIPK2 (Homo sapiens, UniProt Q9H2X6)
T26 construct: unspecified tag ('tagged kinases'); purchased Ambit (KinomeScan screening service)
How it was run: as §1

[27] = target: T27, WEE1 (Homo sapiens, UniProt P30291)
T27 construct: purchased Ambit (KinomeScan screening service)
T27 sequence (P30291 whole entry): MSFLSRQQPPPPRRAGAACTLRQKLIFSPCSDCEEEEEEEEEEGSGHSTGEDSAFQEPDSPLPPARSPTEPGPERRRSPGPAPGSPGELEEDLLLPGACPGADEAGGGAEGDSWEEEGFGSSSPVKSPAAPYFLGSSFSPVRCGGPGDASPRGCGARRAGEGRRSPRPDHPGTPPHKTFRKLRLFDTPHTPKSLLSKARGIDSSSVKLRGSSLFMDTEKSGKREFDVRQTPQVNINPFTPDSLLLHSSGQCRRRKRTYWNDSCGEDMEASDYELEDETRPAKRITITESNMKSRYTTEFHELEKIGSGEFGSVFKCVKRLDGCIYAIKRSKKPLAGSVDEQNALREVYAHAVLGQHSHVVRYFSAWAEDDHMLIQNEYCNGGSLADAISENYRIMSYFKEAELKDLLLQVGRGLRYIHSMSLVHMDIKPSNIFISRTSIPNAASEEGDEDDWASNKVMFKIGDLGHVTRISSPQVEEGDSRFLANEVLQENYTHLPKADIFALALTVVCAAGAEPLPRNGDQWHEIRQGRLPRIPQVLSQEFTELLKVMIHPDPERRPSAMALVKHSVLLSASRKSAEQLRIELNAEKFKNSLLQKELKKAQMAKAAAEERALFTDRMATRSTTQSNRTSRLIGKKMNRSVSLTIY
How it was run: as §1

[28] = target: T28, PHKG1 (Homo sapiens, UniProt Q16816)
T28 construct: unspecified tag ('tagged kinases'); purchased Ambit (KinomeScan screening)
T28 sequence (Q16816 whole entry): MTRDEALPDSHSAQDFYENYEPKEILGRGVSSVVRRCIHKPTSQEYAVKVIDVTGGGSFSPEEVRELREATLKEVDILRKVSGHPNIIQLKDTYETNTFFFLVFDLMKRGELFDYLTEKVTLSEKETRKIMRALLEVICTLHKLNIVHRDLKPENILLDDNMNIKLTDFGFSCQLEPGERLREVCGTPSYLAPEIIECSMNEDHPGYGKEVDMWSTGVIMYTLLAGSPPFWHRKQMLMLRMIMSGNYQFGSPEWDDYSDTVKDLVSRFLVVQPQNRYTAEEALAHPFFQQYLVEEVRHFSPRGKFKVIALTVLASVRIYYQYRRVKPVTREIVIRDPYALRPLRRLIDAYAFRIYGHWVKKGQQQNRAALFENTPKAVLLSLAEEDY
How it was run: as §1

[29] = target: T29, CAMKK1 (Homo sapiens, UniProt Q8N5S9)
T29 construct: purchased Ambit (KinomeScan screening)
How it was run: as §1

[30] = target: T30, TAOK3 (Homo sapiens, UniProt Q9H2K8)
T30 construct: tag (kind not specified); purchased Ambit (KinomeScan screening service)
How it was run: as §1

[31] = target: T31, FGFR3(G697C) (Homo sapiens, UniProt P22607, G697C)
T31 construct: unspecified tag; purchased Ambit (KinomeScan screening service)
How it was run: as §1

[32] = target: T32, PLK4 (Homo sapiens, UniProt O00444)
T32 construct: purchased Ambit (KinomeScan screening service)
How it was run: as §1

[33] = target: T33, LOK (Homo sapiens, UniProt O94804)
T33 construct: unspecified tag ('tagged kinases'); purchased Ambit (KinomeScan screening service)
How it was run: as §1

[34] = target: T34, JAK3(JH1domain) (Homo sapiens, UniProt P52333)
T34 construct: JAK3(JH1domain); purchased Ambit (KinomeScan screening)
T34 sequence (P52333 822-1111 limits assumed): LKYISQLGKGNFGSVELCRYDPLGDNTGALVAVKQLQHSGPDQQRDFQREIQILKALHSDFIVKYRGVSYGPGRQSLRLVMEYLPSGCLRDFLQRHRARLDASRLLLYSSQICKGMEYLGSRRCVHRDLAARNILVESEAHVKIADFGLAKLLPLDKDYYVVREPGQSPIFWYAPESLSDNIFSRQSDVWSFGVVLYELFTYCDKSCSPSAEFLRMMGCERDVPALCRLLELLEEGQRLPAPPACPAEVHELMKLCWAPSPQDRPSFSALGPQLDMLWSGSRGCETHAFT
How it was run: as §1

[35] = target: T35, MEK4 (Homo sapiens, UniProt P45985)
T35 construct: purchased Ambit (KinomeScan screening)
How it was run: as §1

[36] = target: T36, CAMK2A (Homo sapiens, UniProt Q9UQM7)
T36 construct: unspecified tag ("tagged kinases"); purchased Ambit (KinomeScan screening)
How it was run: as §1

Measured: Percent of Control Binding

Cc1ccccc1-n1c(C(C)Nc2nc(N)nc3nc[nH]c23)nc2cccc(C)c2c1=O (stereo not drawn) [CAL-130]
100%: all assays above
